Assay results as given in article PMC11714206, “Massively Parallel Screening of Toll/Interleukin‐1 Receptor (TIR)‐Derived Peptides Reveals Multiple Toll‐Like Receptors (TLRs)‐Targeting Immunomodulatory Peptides” (Advanced Science, 2024).
Blank lines part the entries; values can stand above or below the sequence they belong to.

Target: T1, MyD88^TIR (Homo sapiens, UniProt Q99836)
T1 construct: MyD88 (residues 148–296); 6xHis; made in house; host or cells: E. coli BL21 (DE3)
Test: T‐Surf phage library (P8 and P3) selection against MyD88^TIR, four rounds, NGS read counts
Format: binding
Conditions: for P3_MyD88 Rank (after) / P3_MyD88 Rank (before): P3 library; for Population: 4th round of selection against MyD88 TIR, share of NGS reads; for P8_MyD88 Rank (after) / P8_MyD88 Rank (before): P8 library
Outline: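 P8 and P3 T‐Surf libraries panned against plate-coated TIR domains (5 µg mL^−1), 1 h binding at RT, acid elution and TG1/helper-phage amplification per round. After four rounds, pools were PCR-barcoded and sequenced (NovaSeq, 100 bp paired-end, Phred ≥30); peptides ranked by read counts.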

[1] = 4R selection against MyD88, rank after grouping
[2] = 4R selection against MyD88, rank before grouping
[3] = selection against MyD88, rank by count after grouping
[4] = selection against MyD88, rank by count before grouping
[5] = P3_MyD88 pool: P3 T-Surf phage library
[6] = selection against MyD88, rank after grouping
[7] = selection against MyD88, rank before grouping
[8] = P8_MyD88: rank by NGS read count after grouping
[9] = P8_MyD88: rank by NGS read count before grouping
[10] = selection against MyD88 TIR, rank by count after grouping
[11] = selection against MyD88 TIR, rank by count before grouping
[12] = P8_MyD88 pool: P8 T-Surf phage library
[13] = P8_MyD88: rank by count after grouping
[14] = P8_MyD88: rank by count before grouping
[15] = P3_MyD88: rank by count after grouping
[16] = P3_MyD88: rank by count before grouping

T1 sequence (Q99836 148-296): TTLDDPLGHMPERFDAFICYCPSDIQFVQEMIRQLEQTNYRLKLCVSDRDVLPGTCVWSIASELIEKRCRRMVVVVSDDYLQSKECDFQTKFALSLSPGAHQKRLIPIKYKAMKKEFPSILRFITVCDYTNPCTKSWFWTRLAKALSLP

Sequence: SCFCEELCCVLELSKK
P3_MyD88 Rank (after) [1]: 656
P3_MyD88 Rank (before) [2]: 2938

Sequence: LVAHEISKMMKVFATI
P3_MyD88 Rank (after) [3]: 694
P3_MyD88 Rank (before) [4]: 2285

Sequence: NELVNVWSSKANSQVG
P3_MyD88 Rank (after) [3]: 691
P3_MyD88 Rank (before) [4]: 3451

Sequence: DPQDLEWFYERLLAR
P8_MyD88 Rank (after) [6]: 515
P8_MyD88 Rank (before) [7]: 2879

Sequence: DIADEDLPYLIRLLYSL
Rank (after) [8]: 955
Rank (before) [9]: 3056

Sequence: DPQDLEWFYERLGSLF
P8_MyD88 Rank (after) [10]: 247
P8_MyD88 Rank (before) [11]: 2852

Sequence: TSHLHRAWRLNELRTY
P3_MyD88 Rank (after) [10]: 284
P3_MyD88 Rank (before) [11]: 3294

Sequence: YTSLTNRGFLIFRDND
P3_MyD88 Rank (after) [1]: 596
P3_MyD88 Rank (before) [2]: 1624

Sequence: YASRSWYLDELVHIPW
Rank (after) [8]: 1022
Rank (before) [9]: 1842

Sequence: KEVEGWRDALYEAANLS
P3_MyD88 Rank (after) [3]: 684
P3_MyD88 Rank (before) [4]: 3620

Sequence: DPQDLGWFYERLVSLF
Population [12]: 0.00617%

Sequence: DGGWDYLLPNVEGPAC
P8_MyD88 Rank (after) [3]: 760
P8_MyD88 Rank (before) [4]: 2560

Sequence: RSFREGPWRLLELSKK
Rank (after) [15]: 414
Rank (before) [16]: 2694

Sequence: LGYHCMDWEYFVGIED
Rank (after) [13]: 390
Rank (before) [14]: 3228

Sequence: WALDELLRILY
Population [12]: 0.01%

Sequence: FLSYRALEKRFGRLA
P3_MyD88 Rank (after) [1]: 625
P3_MyD88 Rank (before) [2]: 1351

Sequence: YAASPWWFDELVTILG
Rank (after) [13]: 433
Rank (before) [14]: 1725

Sequence: AGDKGTDKIQTPLKNA
P3_MyD88 Rank (after) [6]: 484
P3_MyD88 Rank (before) [7]: 1942

Sequence: KERPFGAQRAEKCVP
Rank (after) [15]: 447
Rank (before) [16]: 3673

Sequence: DPQDLDWLYERPVSQF
P8_MyD88 Rank (after) [6]: 552
P8_MyD88 Rank (before) [7]: 2816

Sequence: YTALTNSGFHTFLDNY
Rank (after) [15]: 119
Rank (before) [16]: 1665

Sequence: DPHDPQWFYERLVRLI
P8_MyD88 Rank (after) [6]: 495
P8_MyD88 Rank (before) [7]: 3035

Sequence: GTFIDYLYHRLMEEGI
Rank (after) [13]: 107
Rank (before) [14]: 113
Population [12]: 0.02%

Sequence: SSFRESLWRLLELSKK
Population [5]: 0.0032%

Sequence: NQWRNALTAAASLSGW
Population [5]: 0.00291%

Sequence: YLLLSVFQTICALRTE
Rank (after) [8]: 963
Rank (before) [9]: 1999

The remaining lines, values ahead:

Population [5]: 0.0032%
Sequence: SSFREGLWRLLELCKK

P8_MyD88 Rank (after) [3]: 745
P8_MyD88 Rank (before) [4]: 2487
Sequence: DWEWDYRLPNLEGPAC

P8_MyD88 Rank (after) [3]: 771
P8_MyD88 Rank (before) [4]: 1816
Sequence: YASYDDNDYYWMTHVLLRHM

P3_MyD88 Rank (after) [6]: 500
P3_MyD88 Rank (before) [7]: 2445
Sequence: LKWGDPAYRLALHYRDFN

Rank (after) [13]: 105
Rank (before) [14]: 108
Population [12]: 0.02%
Sequence: FFSGFRELEDFISKLW

Rank (after) [15]: 167
Rank (before) [16]: 3222
Sequence: SSFREALWRLLELSKN

P8_MyD88 Rank (after) [3]: 698
P8_MyD88 Rank (before) [4]: 2599
Sequence: DRQDLVWPYERLVSLL

P3_MyD88 Rank (after) [6]: 505
P3_MyD88 Rank (before) [7]: 2318
Sequence: LVAMKLPRACLKRLK

Rank (after) [13]: 400
Rank (before) [14]: 3224
Sequence: LGYRWIVWEYFVGIED

Rank (after) [15]: 458
Rank (before) [16]: 3185
Sequence: SSFREGLWRLQALSKK

P8_MyD88 Rank (after) [3]: 715
P8_MyD88 Rank (before) [4]: 2132
Sequence: YNLAHYLYVSMRASGI

Rank (after) [15]: 157
Rank (before) [16]: 1891
Sequence: AVDIETEKIQTPLKNA

Rank (after) [15]: 428
Rank (before) [16]: 1661
Sequence: YTALTNSGFLSFRDTD

Rank (after) [13]: 180
Rank (before) [14]: 1108
Sequence: DPQDLEWLYERLVSLF

Rank (after) [15]: 411
Rank (before) [16]: 1613
Sequence: YRKWGYLRIWDRWRFA

P8_MyD88 Rank (after) [10]: 246
P8_MyD88 Rank (before) [11]: 1595
Sequence: WDFASNMAQSWDRLYY

P3_MyD88 Rank (after) [6]: 538
P3_MyD88 Rank (before) [7]: 3160
Sequence: SSFREGLWRLVYLSKK

P3_MyD88 Rank (after) [6]: 491
P3_MyD88 Rank (before) [7]: 1493
Sequence: YAFTGHLPRDLVLRGG

Rank (after) [8]: 985
Rank (before) [9]: 2634
Sequence: DPHDLQWLYERLVSLI

P3_MyD88 Rank (after) [1]: 658
P3_MyD88 Rank (before) [2]: 2990
Sequence: SENYATSPWAPELLR

P3_MyD88 Rank (after) [3]: 686
P3_MyD88 Rank (before) [4]: 3755
Sequence: KNLFNELVSKNIVPL

P8_MyD88 Rank (after) [6]: 493
P8_MyD88 Rank (before) [7]: 2746
Sequence: DPQDLDWFWVRLIEAL

P8_MyD88 Rank (after) [6]: 522
P8_MyD88 Rank (before) [7]: 2962
Sequence: DPQDPDWCYERLVSLI

Rank (after) [8]: 931
Rank (before) [9]: 1850
Sequence: YASSWWALEELLQILHARELF

P8_MyD88 Rank (after) [10]: 263
P8_MyD88 Rank (before) [11]: 2714
Sequence: DPQDLVWFYESLVSLF
